Source: US6043274A, “Method of treating diabetic cardiomyopathy” (priority 1999, dated 2000)

Columns and labels:
diabetic retinopathy = conditions: humans, mainly in the 1980s; cited from earlier work
[1] = test system: aldose reductase (human recombinant, expressed in SF 9 cells); experiment: Aldose reductase assay, NADPH dependent reduction of glyceraldehyde; format: biochemical; conditions: glyceraldehyde as substrate, 37° C., plot only, no value given
Method: Aldose reductase assays were as described in Nishimura C., Yamaoka T., Mizutani M., Yamashita K., Akera T., Tanimoto T., Purification And Characterization Of The Recombinant Human Aldose Reductase Expressed In Baculovirus System, Biochem. Biophys. Acta, Jun. 24, 1991; 1078(2):171-8.
Briefly, Dimesna (0-20 μM) was incubated at 37° C. with aldose reductase (0.0016 units, human recombinant, expressed in SF 9 cells) and NADPH (0.15 mM) in sodium phosphate buffer (100 mM, pH 6.2). To initiate assays, glucose (10-150 mM) was added to reactions and the decrease in absorbance at 340 nm (oxidation of NADPH) was monitored. Assays were run in duplicate or triplicate. Slopes were calculated using Varian-Cary software package 2.0 and averaged. In all cases errors were 4% or less. Lineweaver Burk analysis (Enzyme Kinetics, version 1.61) was used to calculate inhibition constants.
Aldose reductase assays were as described above. Dimesna (0-30 mM) was evaluated for its effect on the NADPH dependent reduction of glyceraldehyde (0.050-6 mM) to aldose at 37° C. Assays were run in duplicate or triplicate. Slopes were calculated using Varian-Cary software package 2.0 and averaged. In all cases errors were 4% or less. Lineweaver Burk analysis (Enzyme Kinetics, version 1.61) was used to calculate inhibition constants.

dogs = conditions: intravenously; cited from earlier work
mice = conditions: intravenously; cited from earlier work

Row | Structure (SMILES) | efficacy in slowing the progress of diabetic retinopathy (diabetic retinopathy) | tolerability in patients (diabetic retinopathy) | Inhibition of Aldose Reductase (Lineweaver Burk plot) [1] | dose administered with no adverse effects (dogs) [mg/kg] | dose administered with no adverse effects (mice) [mg/kg]
1 | O=C1NC(=O)[C@@]2(CCOc3ccc(F)cc32)N1 [sorbinil] | some efficacy | not well tolerated | – | – | –
2 | O=S(=O)([O-])CCSSCCS(=O)(=O)[O-].[Na+].[Na+] [Dimesna, disodium 2,2'-dithiobis ethane sulfonate] | – | – | Inhibition | > 3750 | > 3750
